Results taken from ChEMBL document CHEMBL1799932, “Antimalarial pyrido[1,2-a]benzimidazoles” (J Med Chem, 2011).

Key:
[1] = test system: Rattus norvegicus; test: Tmax in fasted Sprague-Dawley rat assessed as 1-(2-Diethylaminoethylamino)-3-[4-(trifluoromethyl)phenyl]-pyrido[1,2-a]benzimidazole-4-carbonitrile at 20 mg/kg, po after 48 hrs by LC-MS analysis; format: ADME, organism-based; parameters: dose 20 mg/kg, route oral; details: in vivo
[2] = test system: Plasmodium berghei; test: Antimalarial activity against GFP-transfected Plasmodium berghei strain ANKA infected in NMRI mouse assessed as increase in median survival time at 50 mg/kg/day, ip administered for 4 days measured up to 30 days post infection (reference value: 5 to 7 days); format: functional; details: route intraperitoneal
[3] = Metabolic stability in mouse liver microsomes assessed as intrinsic clearance per mg protein after 60 mins by LC-MS analysis; format: ADME, Microsome
[4] = test system: Plasmodium berghei; test: Antimalarial activity against GFP-transfected Plasmodium berghei strain ANKA infected in NMRI mouse assessed as reduction in parasitemia at 25 mg/kg, po administered as single dose measured on day 5 by FACS analysis; format: functional; parameters: scale not given: the % may be the effect or the level left
[5] = test system: L6; test: Cytotoxicity at rat L6 cells after 72 hrs by microplate alamar blue assay; format: cell-based; details: l6
[6] = test system: Rattus norvegicus; test: AUC (0 to tlast) in fasted Sprague-Dawley rat assessed as 1-(2-Ethylaminoethylamino)-3-[4-(trifluoromethyl)phenyl]- pyrido[1,2-a]benzimidazole-4-carbonitrile level at 20 mg/kg, po after 48 hrs by LC-MS analysis; format: ADME, organism-based, Plasma; parameters: time < 48 hr, dose 20 mg/kg, route oral; details: in vivo
[7] = test system: Rattus norvegicus; test: Apparent half life in fasted Sprague-Dawley rat assessed as 1-(2-Diethylaminoethylamino)-3-[4-(trifluoromethyl)phenyl]-pyrido[1,2-a]benzimidazole-4-carbonitrile at 20 mg/kg, po after 48 hrs by LC-MS analysis; format: ADME, organism-based; parameters: dose 20 mg/kg, route oral; details: in vivo
[8] = test system: Plasmodium berghei; test: Antimalarial activity against GFP-transfected Plasmodium berghei strain ANKA infected in NMRI mouse assessed as reduction in parasitemia at 50 mg/kg, po administered as single dose measured on day 2 by FACS analysis; format: functional; parameters: scale not given: the % may be the effect or the level left
[9] = test system: Plasmodium berghei; test: Antimalarial activity against GFP-transfected Plasmodium berghei strain ANKA infected in NMRI mouse assessed as reduction in parasitemia at 100 mg/kg/day, po administered for 4 consecutive days measured 24 hrs after last treatment by FACS analysis relative to control; format: functional; parameters: scale not given: the % may be the effect or the level left
[10] = test system: Rattus norvegicus; test: AUC (0 to tlast) in fasted Sprague-Dawley rat assessed as 1-(2-Ethylaminoethylamino)-3-[4-(trifluoromethyl)phenyl]- pyrido[1,2-a]benzimidazole-4-carbonitrile level at 5 mg/kg, iv after 48 hrs by LC-MS analysis; format: ADME, organism-based, Plasma; parameters: time < 48 hr, dose 5 mg/kg, route intravenous; details: in vivo
[11] = test system: Plasma; test: Plasma protein binding in human assessed as 1-(2-Diethylaminoethylamino)-3-[4-(trifluoromethyl)phenyl]-pyrido[1,2-a]benzimidazole-4-carbonitrile at 5 mg/kg, iv after 48 hrs by LC-MS analysis; format: ADME, organism-based; parameters: dose 5 mg/kg, route intravenous; details: in vivo
[12] = test system: Plasmodium berghei; test: Antimalarial activity against GFP-transfected Plasmodium berghei strain ANKA infected in NMRI mouse assessed as increase in mean survival time at 25 mg/kg, po administered as single dose (reference value: 5 days )
[13] = test system: Rattus norvegicus; test: Cmax in fasted Sprague-Dawley rat assessed as 1-(2-Ethylaminoethylamino)-3-[4-(trifluoromethyl)phenyl]- pyrido[1,2-a]benzimidazole-4-carbonitrile level at 5 mg/kg, iv after 48 hrs by LC-MS analysis; format: ADME, organism-based; parameters: dose 5 mg/kg, route intravenous; details: in vivo
[14] = test system: Rattus norvegicus; test: Cmax in fasted Sprague-Dawley rat assessed as 1-(2-Diethylaminoethylamino)-3-[4-(trifluoromethyl)phenyl]-pyrido[1,2-a]benzimidazole-4-carbonitrile at 20 mg/kg, po after 48 hrs by LC-MS analysis; format: ADME, organism-based; parameters: dose 20 mg/kg, route oral; details: in vivo
[15] = test system: Rattus norvegicus; test: Drug excretion in fasted Sprague-Dawley rat urine assessed as 1-(2-Diethylaminoethylamino)-3-[4-(trifluoromethyl)phenyl]-pyrido[1,2-a]benzimidazole-4-carbonitrile at 5 mg/kg, iv after 48 hrs by LC-MS analysis; format: ADME, organism-based; parameters: dose 5 mg/kg, route intravenous; details: in vivo
[16] = test system: Rattus norvegicus; test: AUC (0 to tlast) in fasted Sprague-Dawley rat assessed as 1-(2-Diethylaminoethylamino)-3-[4-(trifluoromethyl)phenyl]-pyrido[1,2-a]benzimidazole-4-carbonitrile at 20 mg/kg, po after 48 hrs by LC-MS analysis; format: ADME, organism-based, Plasma; parameters: time < 48 hr, dose 20 mg/kg, route oral; details: in vivo
[17] = test system: Plasmodium berghei; test: Antimalarial activity against GFP-transfected Plasmodium berghei strain ANKA infected in NMRI mouse assessed as increase in median survival time at 100 mg/kg/day, po administered for 4 days measured up to 30 days post infection (reference value: 5 to 7 days); format: functional
[18] = test system: Plasmodium falciparum
Description: Antimalarial activity against multidrug-resistant Plasmodium falciparum K1 infected in human red blood cells assessed as 3H-hypoxanthine incorporation after 48 hrs by liquid scintillation counting

[19] = test system: Rattus norvegicus; test: Tmax in fasted Sprague-Dawley rat assessed as 1-(2-Ethylaminoethylamino)-3-[4-(trifluoromethyl)phenyl]- pyrido[1,2-a]benzimidazole-4-carbonitrile level at 5 mg/kg, iv after 48 hrs by LC-MS analysis; format: ADME, organism-based; parameters: dose 5 mg/kg, route intravenous; details: in vivo
[20] = Metabolic stability in human liver microsomes assessed as degradation half life after 60 mins by LC-MS analysis; format: ADME, Microsome
[21] = test system: Plasmodium berghei; test: Antimalarial activity against GFP-transfected Plasmodium berghei strain ANKA infected in NMRI mouse assessed as reduction in parasitemia at 50 mg/kg, po administered as single dose measured on day 5 by FACS analysis; format: functional; parameters: scale not given: the % may be the effect or the level left
[22] = test system: Rattus norvegicus; test: AUC (0 to tlast) in fasted Sprague-Dawley rat assessed as 1-(2-Diethylaminoethylamino)-3-[4-(trifluoromethyl)phenyl]-pyrido[1,2-a]benzimidazole-4-carbonitrile at 5 mg/kg, iv after 48 hrs by LC-MS analysis; format: ADME, organism-based, Plasma; parameters: time < 48 hr, dose 5 mg/kg, route intravenous; details: in vivo
[23] = test system: Rattus norvegicus; test: Drug excretion in fasted Sprague-Dawley rat urine assessed as 1-(2-Ethylaminoethylamino)-3-[4-(trifluoromethyl)phenyl]- pyrido[1,2-a]benzimidazole-4-carbonitrile level at 5 mg/kg, iv after 48 hrs by LC-MS analysis; format: ADME, organism-based; parameters: dose 5 mg/kg, route intravenous; details: in vivo
[24] = test system: Plasmodium berghei; test: Antimalarial activity against GFP-transfected Plasmodium berghei strain ANKA infected in NMRI mouse assessed as reduction in parasitemia at 50 mg/kg/day, ip administered for 4 consecutive days measured 24 hrs after last treatment by FACS analysis relative to control; format: functional; parameters: scale not given: the % may be the effect or the level left; details: route intraperitoneal
[25] = Metabolic stability in human liver microsomes assessed as intrinsic clearance per mg protein after 60 mins by LC-MS analysis; format: ADME, Microsome
[26] = test system: Plasmodium berghei; test: Antimalarial activity against GFP-transfected Plasmodium berghei strain ANKA infected in NMRI mouse assessed as reduction in parasitemia at 25 mg/kg, po administered as single dose measured on day 3 by FACS analysis; format: functional; parameters: scale not given: the % may be the effect or the level left
[27] = test system: Rattus norvegicus; test: Drug excretion in fasted Sprague-Dawley rat urine assessed as 1-(2-Diethylaminoethylamino)-3-[4-(trifluoromethyl)phenyl]-pyrido[1,2-a]benzimidazole-4-carbonitrile at 20 mg/kg, po after 48 hrs by LC-MS analysis; format: ADME, organism-based; parameters: dose 20 mg/kg, route oral; details: in vivo
[28] = test system: Plasmodium berghei; test: Antimalarial activity against GFP-transfected Plasmodium berghei strain ANKA infected in NMRI mouse assessed as reduction in parasitemia at 25 mg/kg, po administered as single dose measured on day 4 by FACS analysis; format: functional; parameters: scale not given: the % may be the effect or the level left
[29] = test system: Rattus norvegicus; test: Cmax in fasted Sprague-Dawley rat assessed as 1-(2-Ethylaminoethylamino)-3-[4-(trifluoromethyl)phenyl]- pyrido[1,2-a]benzimidazole-4-carbonitrile level at 20 mg/kg, po after 48 hrs by LC-MS analysis; format: ADME, organism-based; parameters: dose 20 mg/kg, route oral; details: in vivo
[30] = test system: Rattus norvegicus; test: Oral bioavailability in fasted Sprague-Dawley rat assessed as 1-(2-Diethylaminoethylamino)-3-[4-(trifluoromethyl)phenyl]-pyrido[1,2-a]benzimidazole-4-carbonitrile at 20 mg/kg, po after 48 hrs by LC-MS analysis; format: ADME, organism-based; details: in vivo
[31] = test system: Plasmodium berghei; test: Antimalarial activity against GFP-transfected Plasmodium berghei strain ANKA infected in NMRI mouse assessed as reduction in parasitemia at 50 mg/kg, po administered as single dose measured on day 3 by FACS analysis; format: functional; parameters: scale not given: the % may be the effect or the level left

Compound: CCN(CC)CCNc1cc(-c2ccc(C(F)(F)F)cc2)c(C#N)c2nc3ccccc3n12.Cl.Cl
- Tmax [1]: 4.13 h
- MSD [2]: 10 days
- microsomal CLint [3]: 71.8 µL/min/mg
- Activity [4]: 70.33%
- IC50 [5]: 89.6 µM
- AUClast [6]: 1032 µM·min
- t1/2(app) [7]: 6.4 h
- Activity [8]: 5.15%
- Activity [9]: 96.2%
- AUClast [10]: 666 µM·min
- PPB [11]: 96.7%
- MSD [12]: 8 days
- Cmax [13]: 540 nM
- Cmax [14]: 380 nM
- Activity [15]: 0.39%
- AUClast [16]: 290 µM·min
- MSD [17]: 16 days
- IC50 [18]: 0.08 µM
- Tmax [19]: 10.7 h
- half-life [20]: 0.228 h
- Activity [21]: 78.22%
- AUClast [22]: 304 µM·min
- Activity [23]: 0.08%
- Activity [24]: 91.9%
- microsomal CLint [25]: 127 µL/min/mg
- Activity [26]: 24.38%
- Activity [27]: 0.05%
- Activity [28]: 51.13%
- Cmax [29]: 920 nM
- F [30]: > 22%
- Activity [31]: 29.76%
